# Tests used:
# SOLNI = assay: Herbicidal activity post-emergence in greenhouse, black nightshade; format: in vivo; details: 100 = complete destruction, 0 = no damage
# Description: (§1) The herbicidal action of the pyridine-2,3-dicarboxamides of the formula I was examined in greenhouse experiments: […]
# (§2) The growing containers used were plastic pots containing loamy sand with approximately 3.0% of humus as the substrate. The seeds of the test plants were sown separately for each species.
# (§3) For the post-emergence treatment, the test plants were first grown to a plant height of 3 to 15 cm, depending on the growth habit, and then treated with the active ingredients which had been suspended or emulsified in water. The test plants were either sown directly and grown in the same containers or first grown separately as seedlings and transplanted into the test containers a few days prior to treatment. The rate of application for the post-emergence treatment was 0.5; 0.0625; 0.0313 or 0.0156 kg/ha of a.s.
# (§4) Depending on the species, the plants were kept at 10-25° C. or 20-35° C. The test period extended over 2 to 4 weeks. During this time, the plants were tended, and their response to the individual treatments was evaluated.
# (§5) Evaluation was carried out using a scale from 0 to 100. 100 means no emergence of the plants or complete destruction of at least the above-ground parts, and 0 means no damage or normal course of growth.
# (§6) The plants used in the greenhouse experiments belonged to the following species: […]
# AMARE = assay: Herbicidal activity post-emergence in greenhouse, redroot pigweed; format: in vivo; details: 100 = complete destruction, 0 = no damage
# Description: as §1, §2, §3, §4, §5, §6
# IPOSS = assay: Herbicidal activity post-emergence in greenhouse, morning glory; format: in vivo; details: 100 = complete destruction, 0 = no damage
# Description: as §1, §2, §3, §4, §5, §6
# ALOMY = assay: Herbicidal activity post-emergence in greenhouse, blackgrass; format: in vivo; details: 100 = complete destruction, 0 = no damage
# Description: as §1, §2, §3, §4, §5, §6
# GALAP = assay: Herbicidal activity post-emergence in greenhouse, catchweed bedstraw; format: in vivo; details: application rate 0.5 kg of a.s./ha, 100 = complete destruction, 0 = no damage
# Description: as §1, §2, §3, §4, §5, §6
# ECGCG = assay: Herbicidal activity post-emergence in greenhouse, barnyard grass; format: in vivo; details: application rate 0.5 kg of a.s./ha, 100 = complete destruction, 0 = no damage
# Description: as §1, §2, §3, §4, §5, §6
# VIOAR = assay: Herbicidal activity post-emergence in greenhouse, violet; format: in vivo; details: application rate 0.5 kg of a.s./ha, 100 = complete destruction, 0 = no damage
# Description: as §1, §2, §3, §4, §5, §6
# [1] = application rate 0.0313 kg of a.s./ha
# [2] = application rate 0.0625 kg of a.s./ha
SMILES,melting point [°C],"Herbicidal activity (scale 0 to 100), AMARE (AMARE; [1])","Herbicidal activity (scale 0 to 100), AMARE (AMARE; [2])","Herbicidal activity (scale 0 to 100), IPOSS (IPOSS; [1])","Herbicidal activity (scale 0 to 100), IPOSS (IPOSS; [2])","Herbicidal activity (scale 0 to 100), ALOMY (ALOMY; [1])","Herbicidal activity (scale 0 to 100), ALOMY (ALOMY; [2])",further results
CCCNC(=O)c1nc(OC)c(Cl)cc1C(=O)Nc1cccc(Cl)c1C,–,98,100,98,100,75,85,"Herbicidal activity (scale 0 to 100), SOLNI (SOLNI; [1]): 100; Herbicidal activity (scale 0 to 100), SOLNI (SOLNI; [2]): 100"
CCCNC(=O)c1nc(Cl)c(C)cc1C(=O)Nc1cccc(Cl)c1C,–,–,–,–,–,–,–,"Herbicidal activity (scale 0 to 100), GALAP (GALAP): 100; Herbicidal activity (scale 0 to 100), ECHCG (ECGCG): 100; Herbicidal activity (scale 0 to 100), IPOSS (IPOSS; application rate 0.5 kg of a.s./ha): 100; Herbicidal activity (scale 0 to 100), VIOAR (VIOAR): 100"
"CCCNC(=O)c1nc(C)ccc1C(=O)Nc1cccc2ccccc12 [Example 1, N-n-Propyl-3-(1-naphthyl)aminocarbonyl-6-methylpyridine-2-carboxamide]",175 to 178,–,–,–,–,–,–,–
CCCNC(=O)c1nc(C)ccc1C(=O)Nc1cccc2ccccc12 [drawing 67],–,98,100,98,100,75,85,–

# More lines, main results first:
melting point [°C],SMILES,"Herbicidal activity (scale 0 to 100), AMARE (AMARE; [1])","Herbicidal activity (scale 0 to 100), AMARE (AMARE; [2])","Herbicidal activity (scale 0 to 100), IPOSS (IPOSS; [1])","Herbicidal activity (scale 0 to 100), IPOSS (IPOSS; [2])","Herbicidal activity (scale 0 to 100), ALOMY (ALOMY; [1])","Herbicidal activity (scale 0 to 100), ALOMY (ALOMY; [2])",further results
151 to 152,"CCCNC(=O)c1nc(C)ccc1C(=O)Nc1cccc(SC)c1C [Example 2, N-n-Propyl-3-(2-methyl-3-methylthiophenyl)aminocarbonyl-6-methylpyridine-2-carboxamide]",–,–,–,–,–,–,–
180 to 181,"Cc1ccc2c(n1)C(=O)N(c1cccc(S(C)(=O)=O)c1C)C2=O [Example 3, N-(2-Methyl-3-methylsulfonylphenyl)-6-methylpyridine-2,3-dicarboximide]",–,–,–,–,–,–,–

# Reference: US6472349B1, “Pyridine-2,3-dicarboxylic acid diamides” (BASF Aktiengesellschaft, priority 1999, dated 2002)
